By AC50 is commonly meant the concentration giving half of the maximal activity seen.

The test system of this assay is Plasmodium falciparum Dd2 asexual blood stage parasites. Briefly: microbe, parasite or virus in culture. Details: species or system Plasmodium falciparum Dd2 in human erythrocytes; single determination (one 11-point concentration-response curve). The settings on record: Plasmodium falciparum, DD2, Erythrocyte, 72 h; read-out: AC50.
With `O=c1nc(C2CCN(S(=O)(=O)c3ccc4c(c3)OCCO4)CC2)[nH]c2c1nnn2Cc1ccc(F)cc1` [MLS001216943-01], the AC50 came to 8.41 µM.

For `CCOc1cccc(CC(=O)Nc2ccc3nc(N4CCCCC4)cc(C)c3c2)c1OCC` [NCGC00137846-01], the AC50 was 6.68 µM.

For the compound `CN(C)C[C@@H]1CN(C)C[C@H]1N[S+](=O)([O-])c1ccc(Br)cc1` [NCGC00462726-01], the AC50 worked out at 13.3 µM.

On to `O=C(Nc1ccc(Cl)cc1)N1CCC2(CC1)CCN(Cc1cccs1)c1ccccc1O2` [NCGC00478210-01], for which the AC50 came to 8.41 µM.

As for `CC1=C[C@@H](CNC(=O)COc2ccccc2)[C@H](C(C)C)C[C@H]1Cc1nnc(-c2cncn2C)o1` [NCGC00394594-01], the AC50 was determined as 13.3 µM.

`CC(=O)Nc1ccc(Nc2cc(C)nc(Nc3ccc(NC(C)=O)cc3)n2)cc1` [MLS001359830-01]: the AC50 stood at 3.35 µM.

Take `Oc1ccc(Cl)cc1CNCC1CCCCC1` [MLS002207458-01]: the AC50 came to 4.22 µM.

In the case of `Cc1ccc(C)c(CN2C(=O)c3ccccc3[S+](=O)([O-])c3ccc(C(=O)NCCc4ccc(Cl)cc4)cc32)c1` [NCGC00109793-01], the AC50 was 7.5 µM.

Turning to `COc1ccc(S(=O)(=O)N(C)C)cc1NC(C)C(=O)Nc1cccc(C#N)c1` (stereo not drawn) [MLS000761043-01], the half-maximal activity concentration (AC50) was determined as 6.68 µM.

Turning to `COc1ccc(CN2CC(Oc3ccccc3C(=O)NCc3ccccc3)C2)c(OC)c1` [NCGC00458086-01], the AC50 came out at 10.6 µM.

With `CCN1CCN(C(=O)c2c(C)nn(-c3ccc(F)cc3)c2-n2cccc2)CC1` [NCGC00125054-01], the AC50 amounted to 9.44 µM.

For `Clc1ccc2c(N3CCCC3)ccnc2c1` [MLS000049600-01], the AC50 came out at 3.76 µM.

For `CCOC(=O)c1[nH]c(C)c(CCC(=O)N2CCN(c3cc(C)ccc3C)CC2)c1C` [NCGC00134586-01], the AC50 worked out at 1.33 µM.

On to `COc1ccc(CN2CCCCCNC(=O)CC2c2ccccc2)cc1Cn1ccnc1` (stereo not drawn) [NCGC00465444-01], for which the AC50 was determined as 9.44 µM.

For the compound `COc1ccc(CNCc2ccc(C)s2)cc1OCC(O)CN1CCCCC1` (stereo not drawn) [NCGC00428936-01], the AC50 amounted to 9.44 µM.

For the compound `CC(C)C(=O)N1Cc2ccccc2OC2(CCN(C(C)C)CC2)C1` [NCGC00456474-01], the AC50 is 10.6 µM.

On to `CN1CCC2(C1)CN(Cc1ccccc1)c1ccc(C(=O)Nc3ccc(F)cc3)cc12` (stereo not drawn) [NCGC00419355-01], for which the AC50 turned out to be 19.3 µM.

In the case of `Fc1ccc(OC2CN(CC3CCCCC3)C2)cc1F` [NCGC00476687-01], the AC50 was determined as 17.2 µM.

`COc1ccc(C(C)NC(S)=NC2CCCC2)cc1OC` (stereo not drawn) [MLS000581238-01]: the AC50 stood at 6.68 µM.

As to `COc1cc(C)ccc1OCCSc1nc2ccc(NC(=O)c3ccc(F)cc3)cc2s1` [NCGC00118562-01], the AC50 is 10.6 µM.

`CCC(=O)C1=C(c2ccccc2)N(C(=O)CC)n2c(nnc2-c2ccccc2)S1` [NCGC00137198-01]: the AC50 stood at 5.96 µM.

As for `COc1ccc(CNC[C@H]2O[C@H](Cc3cc(-c4ccccc4)on3)CC[C@@H]2O)cc1` [NCGC00401044-01], the half-maximal activity concentration (AC50) came out at 3.85 µM.

In the case of `CCOC(=O)N1CCc2c(sc3c2c(=O)n(Cc2ccccc2)c(=O)n3Cc2ccccc2Cl)C1` [NCGC00111943-01], the AC50 was 4.73 µM.

Regarding `O=C(Nc1cnc2ccccc2c1)c1cccc(-n2cnnn2)c1` [MLS000032104-01], the concentration at half-maximal activity (AC50) worked out at 2.66 µM.

For `O=C1CC(c2ccccc2)N(Cc2ccncc2)CCCN(C(=O)Nc2ccccc2F)CCN1` (stereo not drawn) [NCGC00467191-01], the AC50 is 1.68 µM.

As for `CCC(=O)NC(N)=Nc1nc(C)c2cc(C)c(C)cc2n1` [MLS000768400-01], the AC50 worked out at 9.44 µM.

For the compound `OC(CNCc1cccc(Br)c1)c1ccccc1` (stereo not drawn) [MLS000676112-01], the AC50 came to 5.96 µM.

`CCN(CC)C(=O)c1ccc(-c2nnc3ccc(NC(=O)C4CC4)cn23)cc1` [NCGC00429860-01]: the AC50 stood at 2.99 µM.

Take `CC(C)CCN1CCC(N2CCN([S+](=O)([O-])c3ccc4c(c3)CCCC4)CC2)C1=O` (stereo not drawn) [NCGC00472995-01]: the AC50 was 9.44 µM.

Consider `CCc1cccc(C)c1NC(=O)CN1CCN(S(=O)(=O)c2ccc(C(C)(C)C)cc2)CC1` [MLS001070982-01], for which the AC50 was found to be 8.41 µM.

With `Nc1nonc1-n1nnc(C(=O)N/N=C/c2ccc(Cl)cc2)c1-c1ccc2c(c1)OCO2` [MLS001142698-01], the AC50 was 0.376 µM.

Turning to `COc1cccc(CNCCSc2nnnn2C)c1OCc1ccc(Cl)cc1` [NCGC00103033-01], the half-maximal activity concentration (AC50) was determined as 2.66 µM.

Turning to `CN(Cc1ccccc1)Cc1ccccc1OCC(O)CN1CCCCC1` (stereo not drawn) [NCGC00426411-01], the AC50 turned out to be 1.5 µM.

Take `CC1(c2ccccn2)Nc2ccccc2-c2nc3ccccc3n21` (stereo not drawn) [MLS000039430-01]: the half-maximal activity concentration (AC50) worked out at 5.31 µM.

For `Cc1nn(-c2ccc(C(C)(C)C)cc2)c(C)c1[C@@H]1C=C[C@@H](NC(=O)c2ccco2)C1` [NCGC00394638-01], the AC50 came out at 12.2 µM.

Regarding `CCOC(=O)N1CCc2c(sc3c2c(=O)n(-c2ccccc2C(F)(F)F)c(=O)n3Cc2ccccc2C)C1` [NCGC00111905-01], the AC50 came out at 13.3 µM.

Turning to `COc1cc2nc(NCCC(C)C)n3nc(-c4ccccc4)nc3c2cc1OC` [NCGC00112851-01], the AC50 was 0.422 µM.

On to `Oc1ccc(CN2CCCCC2)nc1-c1ccccc1` [MLS000031925-01], for which the AC50 came to 0.531 µM.

Consider `CC(Oc1ccc(F)cc1)C(=O)Nc1cc(Cl)ccc1-n1cncn1` (stereo not drawn) [MLS001157608-01], for which the AC50 is 6.68 µM.

On to `COc1cccc(-c2nc(-c3c(C)noc3C)cc3c2cc(C)n3CCN(C)C)c1` [NCGC00417217-01], for which the AC50 was 17.2 µM.

For the compound `O=C(CCC1CCCN(Cc2cccn2-c2cccnc2)C1)Nc1ccccc1F` (stereo not drawn) [NCGC00427855-01], the AC50 is 6.68 µM.

As to `CN1CCN(c2nc(Nc3ccc(O)cc3)nc3ccccc23)CC1` [MLS000716977-01], the AC50 came out at 4.22 µM.

For the compound `Cc1noc2c(NC3CCN(C)CC3)cc(-c3cccc(C(F)(F)F)c3)nc12` [NCGC00411487-01], the AC50 is 13.7 µM.

For the compound `CCN(CC)CCC(c1ccc(N(C)C)cc1)c1c(O)cc(OC)cc1OC` (stereo not drawn) [MLS000879508-01], the AC50 turned out to be 3.35 µM.

Regarding `Cc1cccc(-n2c(/C=C/c3c(C)[nH]c4ccccc34)nc3ccccc3c2=O)c1` [NCGC00098794-01], the AC50 worked out at 3.76 µM.

For `O=C(NCC(c1ccco1)N1CCCC1)c1ccc(Cl)cc1` (stereo not drawn) [MLS000570686-01], the AC50 is 8.41 µM.

Regarding `CCO[C@@H]1OC(C(=O)N2CCN(Cc3ccc4c(c3)OCO4)CC2)=C[C@H](c2cn(C(C)=O)c3ccccc23)[C@H]1CCCO` [MLS000834519-01], the half-maximal activity concentration (AC50) is 9.44 µM.

`O=C(c1nnc(COc2ccc(OC(F)(F)F)cc2)n1-c1ccccc1)N1CCC[C@@H]1C(c1ccccc1)c1ccccc1` [NCGC00415795-01]: the AC50 worked out at 8.41 µM.

With `Cc1cc(Nc2nc3ccccc3nc2Cl)n(-c2ccccc2C)n1` [MLS000595322-01], the AC50 was found to be 0.841 µM.

Turning to `COc1ccccc1NC(=O)N1CC(=O)Nc2sc3c(c2C1c1ccccc1)CCCC3` (stereo not drawn) [NCGC00120109-01], the AC50 came out at 15 µM.

With `C#C[C@H]1C[N@@]2CC[C@H]1C[C@@H]2CNCc1cccc(Cl)c1` [NCGC00395254-01], the AC50 came to 4.85 µM.

Consider `O=C(C[C@@H]1NCCC[C@H]1O)Cn1cnc2cc(Br)c(Cl)cc2c1=O` [NCGC00181132-01], for which the AC50 came to 2.37 µM.

In the case of `CCn1nnc(NC(=O)c2ccc(C(C)(C)C)cc2)n1` [MLS000035112-01], the AC50 turned out to be 9.44 µM.

Regarding `COc1cc(-c2nc(-c3ccccc3)c(-c3ccc(Br)cc3)[nH]2)cc(OC)c1O` [NCGC00100017-01], the AC50 turned out to be 2.11 µM.

The record behind these values is paper PMC7822874, “Chemoprotective antimalarials identified through quantitative high-throughput screening of Plasmodium blood and liver stage parasites” (Scientific Reports, 2021).
